Target: T1, CFTR-ΔF508 (Homo sapiens, UniProt P13569, DEL508-508)
T1 construct: expressed in transfected cells
Assay: Cell surface ELISA (anti-HA) in HeLa cells stably expressing HA-tagged CFTR-ΔF508
Format: cell-based
Settings: for mutant CFTR at the cell surface (ELISA): HeLa cells, CFTR-ΔF508-3HA under CMV promoter, oligonucleotide transfection, 6, 12, 24 hrs; for surface display of ΔF508-CFTR (live cell-surface ELISA): HeLa-ΔF508-CFTR-HA cells treated daily with drugs, 72 hr post-treatment, vs DMSO (FIG. 28, 29)

T1 sequence (P13569 with tags, fused parts or gaps DEL508-508): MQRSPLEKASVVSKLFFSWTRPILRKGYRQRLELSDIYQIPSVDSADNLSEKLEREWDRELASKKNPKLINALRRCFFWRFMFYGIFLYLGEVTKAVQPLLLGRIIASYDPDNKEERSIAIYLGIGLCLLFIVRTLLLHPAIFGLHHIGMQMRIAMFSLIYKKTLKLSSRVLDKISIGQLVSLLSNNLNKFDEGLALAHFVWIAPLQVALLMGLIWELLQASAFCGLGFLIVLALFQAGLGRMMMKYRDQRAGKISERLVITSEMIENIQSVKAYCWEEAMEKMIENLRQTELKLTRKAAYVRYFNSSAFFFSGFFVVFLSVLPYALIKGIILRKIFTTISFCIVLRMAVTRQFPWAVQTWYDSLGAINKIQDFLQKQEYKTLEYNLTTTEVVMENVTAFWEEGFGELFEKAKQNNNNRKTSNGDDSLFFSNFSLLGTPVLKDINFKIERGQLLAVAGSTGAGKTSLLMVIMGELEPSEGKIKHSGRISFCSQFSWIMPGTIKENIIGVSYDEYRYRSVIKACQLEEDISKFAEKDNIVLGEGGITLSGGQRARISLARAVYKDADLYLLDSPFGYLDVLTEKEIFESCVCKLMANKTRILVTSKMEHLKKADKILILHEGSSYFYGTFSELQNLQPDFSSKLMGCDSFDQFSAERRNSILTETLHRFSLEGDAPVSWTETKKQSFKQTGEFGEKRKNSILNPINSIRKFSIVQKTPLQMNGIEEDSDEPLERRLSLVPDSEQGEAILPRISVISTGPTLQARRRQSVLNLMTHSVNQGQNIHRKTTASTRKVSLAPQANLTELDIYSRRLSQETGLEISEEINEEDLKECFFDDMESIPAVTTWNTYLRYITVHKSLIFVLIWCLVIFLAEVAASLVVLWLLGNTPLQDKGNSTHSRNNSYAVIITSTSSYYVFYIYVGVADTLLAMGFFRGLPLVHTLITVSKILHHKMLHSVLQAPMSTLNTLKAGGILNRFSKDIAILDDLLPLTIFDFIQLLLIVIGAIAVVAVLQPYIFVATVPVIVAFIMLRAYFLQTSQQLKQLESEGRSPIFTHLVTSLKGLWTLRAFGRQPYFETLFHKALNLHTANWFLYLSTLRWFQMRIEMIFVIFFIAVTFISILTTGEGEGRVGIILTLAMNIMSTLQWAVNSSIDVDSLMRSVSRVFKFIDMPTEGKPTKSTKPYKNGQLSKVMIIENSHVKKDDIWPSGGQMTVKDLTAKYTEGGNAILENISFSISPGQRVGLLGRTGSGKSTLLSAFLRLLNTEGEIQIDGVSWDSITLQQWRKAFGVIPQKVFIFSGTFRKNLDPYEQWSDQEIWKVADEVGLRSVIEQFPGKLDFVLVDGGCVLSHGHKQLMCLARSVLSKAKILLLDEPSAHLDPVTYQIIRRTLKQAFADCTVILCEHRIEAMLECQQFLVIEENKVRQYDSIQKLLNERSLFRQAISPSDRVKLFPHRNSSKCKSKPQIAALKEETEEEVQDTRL

Compound | mutant CFTR at the cell surface (ELISA) | surface display of ΔF508-CFTR (live cell-surface ELISA)
miR-138 mimic: synthetic modified RNA duplex, sense SEQ ID NO: 4, antisense SEQ ID NO: 5, showing miR-138-like activity | mutant CFTR reached the cell surface | 
SIN3A DsiRNA: Dicer-substrate siRNA against SIN3A, sense SEQ ID NO: 6, antisense SEQ ID NO: 7 (sense GCGAUACAUGAAUUCAGAUACUACC; antisense GGUAGUAUCUGAAUUCAUGUAUCGCUC; chemistry not given here) | mutant CFTR reached the cell surface | 
CN1CCC(=C2c3ccccc3CCc3sccc32)CC1 [Pizotifen, 4-(1-methyl-4-piperidylidine)-9, 1 0-dihydro-4H-benzo-[4,5]cyclohepta[1,2]-thiophene] |  | increased
O[C@](CCN1CCCCC1)(c1ccccc1)[C@H]1CC2C=CC1C2 (mixture of isomers) [Biperiden] |  | increased
COc1cc2ncnc(Nc3cccc(Cl)c3)c2cc1OC [Tyrophostin (AG-1478), N-(3-chlorophenyl)-6,7-dimethoxy-4-quinazolinamine] |  | increased
